The values that follow come from article PMC8345219 (Cancers, 2021).

Structures are written as SMILES. Where a SMILES comes first, the peptide text is derived from it. Bridges are numbered along the chain shown (N, C = ends). [ ]: non-standard residue; d: D form. The star is where a group is joined. X1 = CN(C)c1ccc2c(c1)Oc1cc(N(C)C)ccc1C21OC(=O)c2ccc(C(=O)*)cc21; PEG4 = NCCOCCOCCOCCOCCC(=O)O; d(hCys) = N[C@H](CCS)C(=O)O

The test system of data set [1] is HEK293 cells transiently transfected with CMKLR1-eYFP. The data set is described as follows: Live cell fluorescence microscopy of peptide uptake. The class given is cell-based. Conditions: 1 µM Tam-labeled peptide, 60 min. How it is done:
For fluorescence microscopy, HEK293 cells were seeded into Ibidi 15 µ-slides (140,000 cells/200 µL/well) coated with poly D-lysine and grown overnight. Next, cells were transfected with 900 ng CMKLR1-eYFP. Transfection was achieved using Lipofectamine 2000 according to the manufacturer’s protocol. One day post-transfection, fluorescence microscopy experiments were performed on an AxioVision Observer.Z1 microscope equipped with an ApoTome imaging system (Zeiss, Jena, Germany). […] To observe peptide uptake, cells were stimulated with 1 µM Tam-chemerin-9 in OptiMEM, which was replaced with acidic wash (50 mM glycine, 100 mM NaCl, pH 3) in HBSS after the indicated time, followed by two washing steps with OptiMEM. Microscopy was carried out in OptiMEM.

Data set [2] has as its system HEK293 cells stably transfected with CMKLR1-eYFP. The data set is described as follows: Quantification of peptide uptake using a High Content Imager. The format is cell-based. Conditions: 1 µM Tam-labeled peptide, up to 1 h. How it is done: Cells were stimulated with 1 µM of the respective, Tam-labeled peptide for the specified periods, followed by washing with acidic wash (50 mM glycine, 100 mM NaCl, pH 3) in HBSS. Microscopy was carried out in OptiMEM using an ImageXpress Micro Confocal High-Content Imaging System (Molecular Devices, San José, CA, USA), using the appropriate filters for the respective fluorophores (Table 1). The fluorescence intensity per cell was automatically analyzed for each well by a module detecting the nuclei (5–30 µm in diameter and 100 gray levels above background) and the granules by Tam-peptide fluorescence (2–5 µm in diameter, 70 gray levels above background).

Data set [3] is described as follows: Investigation of plasma stability (Tam-labeled peptides, RP-HPLC). The format is in vitro ADME. Conditions: Tam-modified peptides, 10^−5 M in human blood plasma, 37 °C; one-phase decay.
Experimental: Investigation of peptide stability in blood plasma was carried out as described previously [22]. Tam-labeled peptides were dissolved in human blood plasma at a concentration of 10^−5 M and incubated at 37 °C and 250 rpm. Samples taken at the respective time points were added to a solution of 0.1% SDS in ACN/EtOH (1:1). After incubation at −20 °C for 20 min, the supernatant was transferred to a new tube and incubated again at −20 °C for at least 3 h. […] Peaks were integrated, and the peak containing the intact peptide was normalized to the sample taken at t = 0 min (100%). Plasma half-life was determined using one-phase decay in Prism 5 (GraphPad, San Diego, CA, USA).
Data set [4] deals with HEK293 cells stably transfected with CMKLR1-eYFP. Description: Resazurin-based cell viability assay, HEK293-CMKLR1. The conditions noted are these: Homo sapiens; HEK293-CMKLR1, 72 h; read-out: IC50 (toxicity). As for the experimental part:
(§1) HEK293 cells stably transfected with CMKLR1-eYFP, empty HEK293 cells (15,000 cells in 100 µL suspension/well), or HMEC-1 cells (5000 cells in 100 µL suspension/well) in their respective cell culture media were seeded in 96 well plates (coated with poly D-lysine for HEK cells) and incubated at standard conditions overnight. Afterward, cells were incubated with peptides or MTX dissolved in cell culture media, and a medium without peptides was used as a control. […] Ethanol or media was removed and a 50 µL resazurin-based in vitro toxicology assay kit (Sigma-Aldrich, St. Lous, MO, USA) in cell culture media (1:10) was added to each well. After 1 h incubation time, the conversion of the resazurin was detected by measuring the fluorescence intensity at λem = 590 nm. All experiments were performed in duplicates and each experiment was repeated at least three times. Nonlinear regression was calculated using GraphPad Prism 5, curves were normalized to untreated and ethanol-treated cells.
For orientation: The colour change of resazurin is a common sign of viable cells or microbes.

The subject of data set [5] is untransfected HEK293 cells. The data set is described as follows: Resazurin-based cell viability assay, untransfected HEK293. The conditions noted are these: Homo sapiens; HEK293 cells devoid of CMKLR1, 72 h; read-out: IC50 (toxicity). How it is done:
as §1

A further data set has as its system HMEC-1 cells. The data set is described as follows: Resazurin-based cell viability assay, HMEC-1. The conditions noted are these: Homo sapiens; HMEC-1 cells endogenously expressing CMKLR1, 72 h; read-out: IC50 (toxicity). As for the experimental part: as §1

What is called half-life is the time in which the quantity being followed falls by half. Low values mean rapid decline, high ones slow decline. Consider `C[C@@H]1NC(=O)[C@H](Cc2ccccc2)NC(=O)[C@H](CCC(N)=O)NC(=O)[C@H](NC(=O)[C@@H]2CCCN2C(=O)[C@H](Cc2ccccc2)NC(=O)[C@H](Cc2ccc(O)cc2)NC(=O)CCOCCOCCOCCOCCNC(=O)c2ccc3c(c2)C2(OC3=O)c3ccc(N(C)C)cc3Oc3cc(N(C)C)ccc32)CCSSC[C@@H](C(=O)O)NC(=O)[C@H](Cc2ccccc2)NC1=O` [Compound 12T, Tam-EG(4)-YFP(xQFAFC)] ({X1-PEG4}-YFP[d(hCys)]QFAFC-OH; disulfide 4-9), for which, in data set [1], the “intracellular Tam-fluorescence (peptide uptake)” value is reported as “pronounced intracellular fluorescence is visible after 60 min of stimulation”. Besides, the “intracellular accumulation of Tam-fluorescence over time” value in data set [2] was “comparable intracellular accumulation over time”. Further, in data set [3], the half-life is above 48 h.
Broadly, the IC50 is the concentration that inhibits the measured activity by half. As for `CN(Cc1cnc2nc(N)nc(N)c2n1)c1ccc(C(=O)N[C@@H](CCC(=O)O)C(=O)O)cc1` [MTX, Methotrexate, reference compound], the values for the half-maximal inhibitory concentration (IC50) (in data set [4]; in data set [5]; with HMEC-1 cells) were 471 nM, 373 nM and 10000 nM, respectively.
